Consider 33 compounds from patent US20070010671A1, “Novel quinazoline derivatives and methods of treatment related to the use thereof” (priority 2003, published 2007).

The assay concerns the target MCH receptor (Homo sapiens, UniProt Q99705). Put plainly: High throughput functional screening FLIPR/FDSS6000: inhibition of MCH-evoked intracellular Ca2+ changes. The note with it: class by percent of control at 10^-7 M or IC50. The class given is cell-based. In short, it runs like this: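 Fluo4 fluorescence (Ex 488 nm, Em 530 nm) tracked MCH-evoked [Ca2+]i transients over 290 s by FLIPR or FDSS. Cells carried a constitutively active, non-endogenous receptor version. Compounds were added 3 min before a 50 nM MCH challenge.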

For the compound `Cc1ccc(Cl)cc1NC(=S)N[C@H]1CC[C@@H](Nc2nc(N(C)C)c3ccccc3n2)CC1` [compound 238], the class is 2 (Class 2: The value of percent of control at 10^−7 M was from 40% to 60% or the value of IC50 was from 50 nM to 200 nM.). For `CN(C)c1nc(N[C@H]2CC[C@@H](NC(=S)NC3C[C@@H]4CC[C@H]3C4)CC2)nc2ccccc12` (stereo partly drawn) [compound 239], the class is on record as 2 (Class 2: The value of percent of control at 10^−7 M was from 40% to 60% or the value of IC50 was from 50 nM to 200 nM.). To `CN(C)c1nc(N[C@H]2CC[C@@H](NC(=S)Nc3ccc(NC(=O)OC(C)(C)C)cc3)CC2)nc2ccccc12` [compound 240] belongs 3 (Class 3: The value of percent of control at 10^−7 M was more than 60% or the value of IC50 was more than 200 nM.); to `COc1ccc(CCNC(=S)N[C@H]2CC[C@@H](Nc3nc(N(C)C)c4ccccc4n3)CC2)cc1OC` [compound 241], 3 (Class 3: The value of percent of control at 10^−7 M was more than 60% or the value of IC50 was more than 200 nM.); to `CN(C)c1nc(N[C@H]2CC[C@@H](NC(=S)NCCc3ccc(Cl)cc3)CC2)nc2ccccc12` [compound 242], 2 (Class 2: The value of percent of control at 10^−7 M was from 40% to 60% or the value of IC50 was from 50 nM to 200 nM.). As to `CN(C)c1nc(N[C@H]2CC[C@@H](NC(=S)Nc3cc(Cl)c(Cl)c(Cl)c3Cl)CC2)nc2ccccc12` [compound 243], the class was 3 (Class 3: The value of percent of control at 10^−7 M was more than 60% or the value of IC50 was more than 200 nM.).

For the compound `CN(C)c1nc(N[C@H]2CC[C@@H](NC(=S)Nc3cc(Cl)c(Cl)cc3Cl)CC2)nc2ccccc12` [compound 244], the class is given as 3 (Class 3: The value of percent of control at 10^−7 M was more than 60% or the value of IC50 was more than 200 nM.). To `CN(C)c1nc(N[C@H]2CC[C@@H](NC(=S)Nc3c(Cl)cc(Cl)cc3Cl)CC2)nc2ccccc12` [compound 246, N-(cis-4-{[4-(dimethylamino)quinazolin-2-yl]amino}cyclohexyl)-N′-(2,4,6-trichlorophenyl)thiourea] belongs 1 (Class 1: The value of percent of control at 10^−7 M was less than 40% or the value of IC50 was less than 50 nM.).

Consider `CN(C)c1nc(N[C@H]2CC[C@@H](NC(=S)Nc3c(F)cc(F)cc3F)CC2)nc2ccccc12` [compound 247], for which the class is recorded as 3 (Class 3: The value of percent of control at 10^−7 M was more than 60% or the value of IC50 was more than 200 nM.). On to `Cc1cc(C)c(NC(=S)N[C@H]2CC[C@@H](Nc3nc(N(C)C)c4ccccc4n3)CC2)c(C)c1` [compound 248, N-(cis-4-{[4-(dimethylamino)quinazolin-2-yl]amino}cyclohexyl)-N′-mesitylthiourea], for which the class is listed as 1 (Class 1: The value of percent of control at 10^−7 M was less than 40% or the value of IC50 was less than 50 nM.). To `Cc1ccc(NC(=S)N[C@H]2CC[C@@H](Nc3nc(N(C)C)c4ccccc4n3)CC2)c(C)c1` [compound 249, N-(cis-4-{[4-(dimethylamino)quinazolin-2-yl]amino}cyclohexyl)-N′-(2,4-dimethylphenyl)thiourea] belongs 1 (Class 1: The value of percent of control at 10^−7 M was less than 40% or the value of IC50 was less than 50 nM.); to `CCc1cccc(CC)c1NC(=S)N[C@H]1CC[C@@H](Nc2nc(N(C)C)c3ccccc3n2)CC1` [compound 250, N-(2,6-diethylphenyl)-N′-(cis-4-{[4-(dimethylamino)quinazolin-2-yl]amino}cyclohexyl)thiourea], 1 (Class 1: The value of percent of control at 10^−7 M was less than 40% or the value of IC50 was less than 50 nM.); to `CC(C)c1cccc(C(C)C)c1NC(=S)N[C@H]1CC[C@@H](Nc2nc(N(C)C)c3ccccc3n2)CC1` [compound 251], 2 (Class 2: The value of percent of control at 10^−7 M was from 40% to 60% or the value of IC50 was from 50 nM to 200 nM.).

For the compound `Cc1ccc(NC(=S)N[C@H]2CC[C@@H](Nc3nc(N(C)C)c4ccccc4n3)CC2)c(Br)c1` [compound 252], the class is 1 (Class 1: The value of percent of control at 10^−7 M was less than 40% or the value of IC50 was less than 50 nM.). To `CN(C)c1nc(N[C@H]2CC[C@@H](NC(=S)Nc3cc(C(F)(F)F)ccc3Cl)CC2)nc2ccccc12` [compound 253] belongs 3 (Class 3: The value of percent of control at 10^−7 M was more than 60% or the value of IC50 was more than 200 nM.); to `CN(C)c1nc(N[C@H]2CC[C@@H](NC(=S)NCc3ccccc3Cl)CC2)nc2ccccc12` [compound 254, N-(2-chlorobenzyl)-N′-(cis-4-{[4-(dimethylamino)quinazolin-2-yl]amino}cyclohexyl)thiourea], 1 (Class 1: The value of percent of control at 10^−7 M was less than 40% or the value of IC50 was less than 50 nM.). In the case of `CCc1cccc(C)c1NC(=S)N[C@H]1CC[C@@H](Nc2nc(N(C)C)c3ccccc3n2)CC1` [compound 255, N-(cis-4-{[4-(dimethylamino)quinazolin-2-yl]amino}cyclohexyl)-N′-(2-ethyl-6-methylphenyl)thiourea] it was 1 (Class 1: The value of percent of control at 10^−7 M was less than 40% or the value of IC50 was less than 50 nM.); in that of `CC(C)c1ccccc1NC(=S)N[C@H]1CC[C@@H](Nc2nc(N(C)C)c3ccccc3n2)CC1` [compound 256, N-(cis-4-{[4-(dimethylamino)quinazolin-2-yl]amino}cyclohexyl)-N′-(2-isopropylphenyl)thiourea], 1 (Class 1: The value of percent of control at 10^−7 M was less than 40% or the value of IC50 was less than 50 nM.); in that of `CSc1cccc(NC(=S)N[C@H]2CC[C@@H](Nc3nc(N(C)C)c4ccccc4n3)CC2)c1` [compound 257], 3 (Class 3: The value of percent of control at 10^−7 M was more than 60% or the value of IC50 was more than 200 nM.). In the case of `CN(C)c1nc(N[C@H]2CC[C@@H](NC(=S)NCc3ccc(Cl)c(Cl)c3)CC2)nc2ccccc12` [compound 258] it was 3 (Class 3: The value of percent of control at 10^−7 M was more than 60% or the value of IC50 was more than 200 nM.); in that of `COc1cc(NC(=S)N[C@H]2CC[C@@H](Nc3nc(N(C)C)c4ccccc4n3)CC2)cc(OC)c1` [compound 259], 2 (Class 2: The value of percent of control at 10^−7 M was from 40% to 60% or the value of IC50 was from 50 nM to 200 nM.); in that of `Cc1cc(C)cc(NC(=S)N[C@H]2CC[C@@H](Nc3nc(N(C)C)c4ccccc4n3)CC2)c1` [compound 260, N-(cis-4-{[4-(dimethylamino)quinazolin-2-yl]amino}cyclohexyl)-N′-(3,5-dimethylphenyl)thiourea], 2 (Class 2: The value of percent of control at 10^−7 M was from 40% to 60% or the value of IC50 was from 50 nM to 200 nM.). In the case of `CN(C)c1nc(N[C@H]2CC[C@@H](NC(=S)Nc3cccc(OCc4ccccc4)c3)CC2)nc2ccccc12` [compound 261], the class is given as 3 (Class 3: The value of percent of control at 10^−7 M was more than 60% or the value of IC50 was more than 200 nM.). Regarding `Cc1ccc(NC(=S)N[C@H]2CC[C@@H](Nc3nc(N(C)C)c4ccccc4n3)CC2)cc1Cl` [compound 262], the class is on record as 2 (Class 2: The value of percent of control at 10^−7 M was from 40% to 60% or the value of IC50 was from 50 nM to 200 nM.). As for `COC(=O)c1cccc(NC(=S)N[C@H]2CC[C@@H](Nc3nc(N(C)C)c4ccccc4n3)CC2)c1` [compound 263], the class is 1 (Class 1: The value of percent of control at 10^−7 M was less than 40% or the value of IC50 was less than 50 nM.). On to `CN(C)c1nc(N[C@H]2CC[C@@H](NC(=S)NCCCc3ccccc3)CC2)nc2ccccc12` [compound 264], for which the class was 3 (Class 3: The value of percent of control at 10^−7 M was more than 60% or the value of IC50 was more than 200 nM.). Consider `CN(C)c1nc(N[C@H]2CC[C@@H](NC(=S)Nc3ccc(OCc4ccccc4)cc3)CC2)nc2ccccc12` [compound 265], for which the class is recorded as 3 (Class 3: The value of percent of control at 10^−7 M was more than 60% or the value of IC50 was more than 200 nM.). For the compound `Cc1cc(Br)cc(C)c1NC(=S)N[C@H]1CC[C@@H](Nc2nc(N(C)C)c3ccccc3n2)CC1` [compound 266, N-(4-bromo-2,6-dimethylphenyl)-N′-(cis-4-{[4-(dimethylamino)quinazolin-2-yl]amino}cyclohexyl)thiourea], the class is 1 (Class 1: The value of percent of control at 10^−7 M was less than 40% or the value of IC50 was less than 50 nM.). On to `Cc1cc(Br)ccc1NC(=S)N[C@H]1CC[C@@H](Nc2nc(N(C)C)c3ccccc3n2)CC1` [compound 267], for which the class is recorded as 1 (Class 1: The value of percent of control at 10^−7 M was less than 40% or the value of IC50 was less than 50 nM.).

As to `CN(C)c1nc(N[C@H]2CC[C@@H](NC(=S)Nc3ccc(Br)cc3C(F)(F)F)CC2)nc2ccccc12` [compound 268, N-[4-bromo-2-(trifluoromethyl)phenyl]-N′-(cis-4-{[4-(dimethylamino)quinazolin-2-yl]amino}cyclohexyl)thiourea], the class is on record as 1 (Class 1: The value of percent of control at 10^−7 M was less than 40% or the value of IC50 was less than 50 nM.). To `Cc1cc(Cl)ccc1NC(=S)N[C@H]1CC[C@@H](Nc2nc(N(C)C)c3ccccc3n2)CC1` [compound 269] belongs 1 (Class 1: The value of percent of control at 10^−7 M was less than 40% or the value of IC50 was less than 50 nM.); to `CN(C)c1nc(N[C@H]2CC[C@@H](NC(=S)Nc3ccc(Cl)c([N+](=O)[O-])c3)CC2)nc2ccccc12` [compound 270], 3 (Class 3: The value of percent of control at 10^−7 M was more than 60% or the value of IC50 was more than 200 nM.). `CN(C)c1nc(N[C@H]2CC[C@@H](NC(=S)NCc3ccc(Cl)cc3)CC2)nc2ccccc12` [compound 271]: the class was 3 (Class 3: The value of percent of control at 10^−7 M was more than 60% or the value of IC50 was more than 200 nM.).
